26 compounds from PMC9267128, “New 2-[(4-Amino-6-N-substituted-1,3,5-triazin-2-yl)methylthio]-N-(imidazolidin-2-ylidene)-4-chloro-5-methylbenzenesulfonamide Derivatives, Design, Synthesis and Anticancer Evaluation” (International Journal of Molecular Sciences, 2022) can be followed below.

One assay relates to HCT-116 (colon cancer). The assay can be described thus: MTT cell viability assay, HCT-116. It is filed as cell-based, human. The following applies: for IC50: MTT assay, 72 h of incubation; for Selectivity Index (SI) HCT-116: IC50 value toward HaCaT cells/IC50 value toward HCT-116. The protocol:
(§1) Analysis was performed using an MTT assay after 72 h of incubation.
(§2) All chemicals, if not stated otherwise, were obtained from Sigma–Aldrich (St. Louis, MO, USA). The HCT-116 cell line was purchased from ATCC (ATCC-No: CCL-247), while the MCF-7, HeLa and HaCaT cell lines were purchased from Cell Lines Services (Eppelheim, Germany). Cells were cultured in Dulbecco’s modified Eagle’s medium (DMEM) supplemented with 10% fetal bovine serum, 2 mM glutamine, 100 units/mL penicillin and 100 µg/mL streptomycin. Cultures were maintained in a humidified atmosphere with 5% carbon dioxide at 37 °C in an incubator (Heraceus, HeraCell).
(§3) Cell viability was examined using the MTT [3-(4,5-dimethylthiazol-2-yl)-2,5-diphenyltetrazolium bromide] assay. Cells were seeded in 96-well plates at a density of 3 × 10^3 cells/well and treated for 72 h with the tested compounds in the concentration range of 1–100 µM. Then, MTT (0.5 mg/mL) was added to the medium and cells were further incubated for 2 h at 37 °C. In the next stage, cells were lysed with DMSO and the absorbance of the formazan solution was measured at 550 nm with a plate reader (1420 multilabel counter, Victor, Jügesheim, Germany). The experiment was performed in triplicate. Values are expressed as the mean ± SD of at least three independent experiments.
A general note: Tetrazolium assays rely on reduction of a dye to a coloured formazan, in cell work by metabolically active cells.

For a further assay, the system named is MCF-7 (breast cancer). The experiment in a line: MTT cell viability assay, MCF-7. It is filed as cell-based, human. Conditions: for IC50: Homo sapiens, MCF7, 72 h, MTT assay, 72 h of incubation; for Selectivity Index (SI) MCF-7: IC50 value toward HaCaT cells/IC50 value toward MCF-7. The protocol:
(§4) Compounds 20–162 were evaluated in vitro for their effects on the viability of three cancer cell lines: HCT-116 (colon cancer), MCF-7 (breast cancer) and HeLa (cervical cancer), as well as the non-cancerous keratinocyte cell line (HaCaT). […] Analysis was performed using an MTT assay after 72 h of incubation.
as §2
as §3, with “experiments. Cisplatin was used as a positive control.” for “experiments.”

The subject of another assay is HeLa (cervical cancer). The assay can be described thus: MTT cell viability assay, HeLa. It is filed as cell-based, human. Conditions: for IC50: Homo sapiens, HeLa, MTT assay, 72 h of incubation; for Selectivity Index (SI) HeLa: IC50 value toward HaCaT cells/IC50 value toward HeLa. Here is the method: as §1, §2, §3
Assay [1] concerns HaCaT (human keratinocyte cell line). The assay can be described thus: MTT cell viability assay, non-cancerous HaCaT. It is filed as cell-based. Conditions: Homo sapiens, HaCaT, 72 h, 72 h of incubation, non-cancerous keratinocytes. The protocol:
as §4, §2
as §3, with “experiments. Cisplatin was used as a positive control.” for “experiments.”

For the compound `Cc1cc(S(=O)(=O)N=C2NCCN2Cc2cc(C(F)(F)F)cc(C(F)(F)F)c2)c(SCc2nc(N)nc(N3CCN(c4cccc(C(F)(F)F)c4)CC3)n2)cc1Cl` [Compound 153], the half-maximal inhibitory concentration (IC50) (commonly the concentration needed to halve the response being measured) amounted to 6 ± 0.3 µM with HCT-116 (colon cancer) (Homo sapiens, HCT-116, 72 h); 8 ± 0.2 µM in the assay with MCF-7 (breast cancer); 9 ± 0.5 µM in the assay with HeLa (cervical cancer); 19 ± 0.5 µM in assay [1].
`Cc1cc(S(=O)(=O)N=C2NCCN2Cc2ccccc2)c(SCc2nc(N)nc(N3CCCc4ccccc43)n2)cc1Cl` [Compound 49]: the IC50 is 14 ± 0.1 µM in the assay with HCT-116 (colon cancer) (Homo sapiens, HCT-116, 72 h); 17 ± 0.3 µM in the assay with MCF-7 (breast cancer); 24 ± 0.5 µM with HeLa (cervical cancer); 38 ± 1 µM in assay [1].
Take `Cc1cc(S(=O)(=O)N=C2NCCN2)c(SCc2nc(N)nc(N(C)c3ccc(Cl)cc3)n2)cc1Cl` [Compound 29]: the 50% inhibitory concentration (IC50) with HCT-116 (colon cancer) (Homo sapiens, HCT-116, 72 h) came out at 25 ± 0.5 µM; in the assay with MCF-7 (breast cancer) it was 24 ± 0.2 µM; in the assay on HeLa (cervical cancer), 32 ± 0.3 µM; in assay [1], 43 ± 2 µM.
As to `Cc1cc(S(=O)(=O)N=C2NCCN2Cc2cccc3ccccc23)c(SCc2nc(N)nc(N3CCN(c4ccc(C(F)(F)F)cc4)CC3)n2)cc1Cl` [Compound 78], the half-inhibitory concentration (IC50) in the assay with HCT-116 (colon cancer) (Homo sapiens, HCT-116, 72 h) was 19.5 ± 0.6 µM; in the assay on MCF-7 (breast cancer), 11 ± 0.5 µM; in the assay with HeLa (cervical cancer), 130 ± 8 µM; in assay [1], 280 ± 14 µM.
Consider `Cc1cc(S(=O)(=O)N=C2NCCN2)c(SCc2nc(N)nc(N3CCCc4ccccc43)n2)cc1Cl` [Compound 24], for which the concentration for half-maximal inhibition (IC50) in the assay on HCT-116 (colon cancer) (Homo sapiens, HCT-116, 72 h) is 20 ± 0.4 µM; with MCF-7 (breast cancer), 27 ± 0.3 µM; with HeLa (cervical cancer), 22 ± 0.2 µM; in assay [1] it was 41 ± 1 µM.
For `Cc1cc(S(=O)(=O)N=C2NCCN2Cc2ccc(C(F)(F)F)cc2)c(SCc2nc(N)nc(N3CCOCC3)n2)cc1Cl` [Compound 119] the same measures were 13 ± 0.4 µM, 13.5 ± 1 µM, 18 ± 1 µM and 41 ± 2 µM.
For `Cc1cc(S(=O)(=O)N=C2NCCN2Cc2ccc(F)cc2)c(SCc2nc(N)nc(N3CCN(c4ccccc4F)CC3)n2)cc1Cl` [Compound 94] the same measures were 9 ± 0.2 µM, 14 ± 0.5 µM, 12 ± 1 µM and 25 ± 1 µM.
On the same counts, the results for `Cc1cc(S(=O)(=O)N=C2NCCN2Cc2ccc(F)cc2)c(SCc2nc(N)nc(Nc3ccc(C(F)(F)F)cc3)n2)cc1Cl` [Compound 87] are 10 ± 0.4 µM, 7 ± 0.3 µM, 15 ± 1 µM and 34 ± 1 µM.
Turning to `Cc1cc(S(=O)(=O)N=C2NCCN2Cc2ccccc2)c(SCc2nc(N)nc(NCc3ccccc3)n2)cc1Cl` [Compound 53], the 50% inhibitory concentration (IC50) was 10 ± 0.5 µM in the assay on HCT-116 (colon cancer) (Homo sapiens, HCT-116, 72 h); 11 ± 0.5 µM in the assay with MCF-7 (breast cancer); 85 ± 2 µM in the assay with HeLa (cervical cancer); 81 ± 4 µM in assay [1].
On the same counts, the results for `Cc1cc(S(=O)(=O)N=C2NCCN2Cc2ccc(F)cc2)c(SCc2nc(N)nc(N3CCN(c4ccc(F)cc4)CC3)n2)cc1Cl` [Compound 93] are 7 ± 0.3 µM, 7 ± 0.5 µM, 8 ± 0.4 µM and 18 ± 1 µM.
For `Cc1cc(S(=O)(=O)N=C2NCCN2Cc2ccc(C(F)(F)F)cc2)c(SCc2nc(N)nc(Nc3ccc(C(F)(F)F)cc3)n2)cc1Cl` [Compound 125] the same measures were 7.5 ± 0.2 µM, 7.5 ± 0.2 µM, 13 ± 0.5 µM and 25 ± 1 µM.
Regarding `Cc1cc(S(=O)(=O)N=C2NCCN2Cc2ccc(C(F)(F)F)cc2)c(SCc2nc(N)nc(N3CCc4ccccc43)n2)cc1Cl` [Compound 120], the half-inhibitory concentration (IC50) in the assay with HCT-116 (colon cancer) (Homo sapiens, HCT-116, 72 h) amounted to 9 ± 0.5 µM; in the assay with MCF-7 (breast cancer), 11 ± 0.1 µM; with HeLa (cervical cancer), 12 ± 0.5 µM; in assay [1], 24 ± 1 µM.
As to `Cc1cc(S(=O)(=O)N=C2NCCN2Cc2ccccc2)c(SCc2nc(N)nc(N(C)c3ccc(Cl)cc3)n2)cc1Cl` [Compound 55], the IC50 in the assay on HCT-116 (colon cancer) (Homo sapiens, HCT-116, 72 h) stood at 7 ± 0.1 µM; in the assay on MCF-7 (breast cancer), 10 ± 0.2 µM; in the assay with HeLa (cervical cancer) it was 13 ± 0.1 µM; in assay [1], 39 ± 2 µM. Also, the “Selectivity Index (SI) HCT-116” value in the assay with HCT-116 (colon cancer) was found to be 5.5. Besides, in the assay on MCF-7 (breast cancer), the “Selectivity Index (SI) MCF-7” value came to 3.9. The “Selectivity Index (SI) HeLa” value with HeLa (cervical cancer) was found to be 3.0.
`Cc1cc(S(=O)(=O)N=C2NCCN2)c(SCc2nc(N)nc(Nc3ccccc3)n2)cc1Cl` [Compound 25]: the IC50 turned out to be 45 ± 2 µM in the assay on HCT-116 (colon cancer) (Homo sapiens, HCT-116, 72 h); 46 ± 2 µM in the assay on MCF-7 (breast cancer); 46 ± 2 µM with HeLa (cervical cancer); 54 ± 2 µM in assay [1].
As to `Cc1cc(S(=O)(=O)N=C2NCCN2Cc2cc(C(F)(F)F)cc(C(F)(F)F)c2)c(SCc2nc(N)nc(NCc3ccccc3)n2)cc1Cl` [Compound 148], the IC50 in the assay on HCT-116 (colon cancer) (Homo sapiens, HCT-116, 72 h) turned out to be 9.5 ± 0.2 µM; in the assay on MCF-7 (breast cancer) it was 8.5 ± 0.5 µM; in the assay with HeLa (cervical cancer), 15 ± 1 µM; in assay [1], 29 ± 1 µM.
For `Cc1cc(S(=O)(=O)N=C2NCCCN2Cc2ccc(C(F)(F)F)cc2)c(SCc2nc(N)nc(N3CCCc4ccccc43)n2)cc1Cl` [Compound 158] the same measures were 5 ± 0.3 µM, 8 ± 0.4 µM, 6 ± 0.3 µM and 17 ± 1 µM.
Take `Cc1cc(S(=O)(=O)N=C2NCCN2Cc2cc(C(F)(F)F)cc(C(F)(F)F)c2)c(SCc2nc(N)nc(N3CCN(c4ccccc4F)CC3)n2)cc1Cl` [Compound 152]: the IC50 in the assay on HCT-116 (colon cancer) (Homo sapiens, HCT-116, 72 h) was found to be 6.5 ± 0.3 µM; with MCF-7 (breast cancer), 6.5 ± 0.3 µM; in the assay with HeLa (cervical cancer) it was 15.5 ± 1 µM; in assay [1] it was 29 ± 1 µM.
On to `Cc1cc(S(=O)(=O)N=C2NCCN2Cc2ccc(C(F)(F)F)cc2)c(SCc2nc(N)nc(N3CC=C(c4ccc(F)cc4)CC3)n2)cc1Cl` [Compound 143], for which the 50% inhibitory concentration (IC50) in the assay on HCT-116 (colon cancer) (Homo sapiens, HCT-116, 72 h) was 4.6 ± 0.1 µM; in the assay with MCF-7 (breast cancer), 6 ± 0.3 µM; with HeLa (cervical cancer), 7 ± 0.4 µM; in assay [1], 19 ± 1 µM.
Regarding `Cc1cc(S(=O)(=O)N=C2NCCN2Cc2cc(C(F)(F)F)cc(C(F)(F)F)c2)c(SCc2nc(N)nc(N3CCN(c4ccccc4)CC3)n2)cc1Cl` [Compound 150], the half-maximal inhibitory concentration (IC50) is below 6 µM in the assay with HCT-116 (colon cancer) (Homo sapiens, HCT-116, 72 h); 3.6 ± 0.2 µM with HCT-116 (colon cancer); 4.5 ± 0.2 µM in the assay with MCF-7 (breast cancer); 11 ± 0.3 µM with HeLa (cervical cancer); 23 ± 1 µM in assay [1]. Further, the “Selectivity Index (SI) HCT-116” value in the assay with HCT-116 (colon cancer) is 6.4. In the assay on MCF-7 (breast cancer), the “Selectivity Index (SI) MCF-7” value came out at 5.1. Also, the “Selectivity Index (SI) HeLa” value in the assay with HeLa (cervical cancer) came out at 2.0.
`Cc1cc(S(=O)(=O)N=C2NCCN2Cc2ccc(Br)cc2)c(SCc2nc(N)nc(N(C)c3ccc(Cl)cc3)n2)cc1Cl` [Compound 105]: the half-maximal inhibitory concentration (IC50) was 13 ± 0.8 µM in the assay with HCT-116 (colon cancer) (Homo sapiens, HCT-116, 72 h); 10 ± 0.2 µM in the assay with MCF-7 (breast cancer); 17 ± 0.5 µM in the assay on HeLa (cervical cancer); 35 ± 2 µM in assay [1].
On the same counts, the results for `Cc1cc(S(=O)(=O)N=C2NCCN2Cc2ccccc2)c(SCc2nc(N)nc(N3CCN(c4cccc(Cl)c4)CC3)n2)cc1Cl` [Compound 63] are 7 ± 0.1 µM, 9 ± 0.5 µM, 12 ± 0.5 µM and 24 ± 1 µM.
For `Cc1cc(S(=O)(=O)N=C2NCCN2Cc2cc(C(F)(F)F)cc(C(F)(F)F)c2)c(SCc2nc(N)nc(Nc3ccccc3)n2)cc1Cl` [Compound 146] the same measures were 11.5 ± 0.5 µM, 12.5 ± 0.6 µM, 15 ± 1 µM and 32 ± 1 µM.
As for `Cc1cc(S(=O)(=O)N=C2NCCN2Cc2ccc(F)cc2)c(SCc2nc(N)nc(N(C)c3ccc(Cl)cc3)n2)cc1Cl` [Compound 90], the 50% inhibitory concentration (IC50) in the assay with HCT-116 (colon cancer) (Homo sapiens, HCT-116, 72 h) came to 12 ± 0.2 µM; in the assay on MCF-7 (breast cancer) it was 17 ± 1 µM; with HeLa (cervical cancer), 15 ± 0.6 µM; in assay [1] it was 30 ± 2 µM.
On the same counts, the results for `Cc1cc(S(=O)(=O)N=C2NCCN2Cc2ccc(C(F)(F)F)cc2)c(SCc2nc(N)nc(N(C)c3ccc(Cl)cc3)n2)cc1Cl` [Compound 129] are 11 ± 0.1 µM, 14 ± 0.5 µM, 15 ± 1 µM and 31 ± 1 µM.
On the same counts, the results for `Cc1cc(S(=O)(=O)N=C2NCCN2Cc2ccccc2)c(SCc2nc(N)nc(N3CCN(c4cccc(C(F)(F)F)c4)CC3)n2)cc1Cl` [Compound 61] are 6.5 ± 0.1 µM, 9 ± 0.3 µM, 10 ± 0.2 µM and 21 ± 1 µM.
For `Cc1cc(S(=O)(=O)N=C2NCCN2Cc2cc(C(F)(F)F)cc(C(F)(F)F)c2)c(SCc2nc(N)nc(N3CCN(c4ccc(Cl)cc4)CC3)n2)cc1Cl` [Compound 154] the same measures were 5 ± 0.1 µM, 6.5 ± 0.2 µM, 12 ± 1 µM and 26 ± 1 µM.
